Each structure is given as a SMILES string. Where a name gives a salt, the structure may show the parent alone.

This is an account of results in US20240174639A1, “PYRIDINE DERIVATIVES USEFUL AS HCN2 MODULATORS” (King's College London, priority 2021, published 2024).

The target of one experiment is T1, HCN2 (Homo sapiens, UniProt Q9UL51).
T1 sequence (Q9UL51 1-889): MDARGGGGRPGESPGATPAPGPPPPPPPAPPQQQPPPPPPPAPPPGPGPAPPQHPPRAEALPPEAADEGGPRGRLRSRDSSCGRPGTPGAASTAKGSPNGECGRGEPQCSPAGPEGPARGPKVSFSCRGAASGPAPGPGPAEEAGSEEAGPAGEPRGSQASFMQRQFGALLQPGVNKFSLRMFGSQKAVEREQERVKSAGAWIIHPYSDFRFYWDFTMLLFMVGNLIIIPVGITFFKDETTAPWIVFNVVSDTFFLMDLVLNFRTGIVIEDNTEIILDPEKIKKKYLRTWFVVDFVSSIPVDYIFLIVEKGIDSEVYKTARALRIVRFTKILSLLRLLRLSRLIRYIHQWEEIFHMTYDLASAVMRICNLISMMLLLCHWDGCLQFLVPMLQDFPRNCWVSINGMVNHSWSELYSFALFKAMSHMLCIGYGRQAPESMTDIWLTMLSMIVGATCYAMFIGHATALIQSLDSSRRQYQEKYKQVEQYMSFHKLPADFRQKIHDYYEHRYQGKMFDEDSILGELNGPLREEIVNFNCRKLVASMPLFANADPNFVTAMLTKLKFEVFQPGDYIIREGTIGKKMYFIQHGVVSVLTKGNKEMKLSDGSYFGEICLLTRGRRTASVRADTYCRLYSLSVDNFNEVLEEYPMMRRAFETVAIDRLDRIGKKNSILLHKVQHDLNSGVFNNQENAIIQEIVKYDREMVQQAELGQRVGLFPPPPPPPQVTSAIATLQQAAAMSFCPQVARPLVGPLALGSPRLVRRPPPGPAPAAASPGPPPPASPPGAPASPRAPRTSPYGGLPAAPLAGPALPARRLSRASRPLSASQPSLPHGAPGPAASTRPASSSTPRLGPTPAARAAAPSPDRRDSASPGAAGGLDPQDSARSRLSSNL
Description: HCN2 assay using PatchXpress 7000A (Example 50A). It counts as cell-based. The settings on record: PatchXpress protocol (PX). From the text:
(§1) Solutions for recording HON currents were:
For HCN1 and HCN2, the pulse protocol involved stepping from a holding potential of −30 mV to −110 mV (see FIG. 1A) for 2 seconds to evoke the current. The membrane voltage was then stepped back to −30 mV for a further 8 seconds. This sequence was evoked repeatedly every 10 seconds throughout the experiment, starting prior to drug (Control A) and during cumulative additions of 5 increasing compound concentrations, then finally a 100% inhibiting concentration of cesium chloride (CsCl, 3 mM).
(§2) The peak inward current measured at the end of the pulse to −110 mV (HCN1 and HCN2) or −130 mV (HCN4) was measured and any leak current subtracted to calculate the HCN current. The HCN current amplitude was measured after each control or compound addition and normalized to the control amplitude (Control A).
(§3) All experiments were performed at room temperature (approximately 22° C.).
(§4) Each test compound concentration was applied to the cell for seven (7) minutes, at which point the next cumulative concentration was applied. 3 mM CsCl was applied to each cell for 2 minutes at the end of each experiment (Control B) to determine 100% inhibition level of the HCN current.

For the next experiment, the target named is T2, HCN4 (Homo sapiens, UniProt Q9Y3Q4).
T2 sequence (Q9Y3Q4 1-1203): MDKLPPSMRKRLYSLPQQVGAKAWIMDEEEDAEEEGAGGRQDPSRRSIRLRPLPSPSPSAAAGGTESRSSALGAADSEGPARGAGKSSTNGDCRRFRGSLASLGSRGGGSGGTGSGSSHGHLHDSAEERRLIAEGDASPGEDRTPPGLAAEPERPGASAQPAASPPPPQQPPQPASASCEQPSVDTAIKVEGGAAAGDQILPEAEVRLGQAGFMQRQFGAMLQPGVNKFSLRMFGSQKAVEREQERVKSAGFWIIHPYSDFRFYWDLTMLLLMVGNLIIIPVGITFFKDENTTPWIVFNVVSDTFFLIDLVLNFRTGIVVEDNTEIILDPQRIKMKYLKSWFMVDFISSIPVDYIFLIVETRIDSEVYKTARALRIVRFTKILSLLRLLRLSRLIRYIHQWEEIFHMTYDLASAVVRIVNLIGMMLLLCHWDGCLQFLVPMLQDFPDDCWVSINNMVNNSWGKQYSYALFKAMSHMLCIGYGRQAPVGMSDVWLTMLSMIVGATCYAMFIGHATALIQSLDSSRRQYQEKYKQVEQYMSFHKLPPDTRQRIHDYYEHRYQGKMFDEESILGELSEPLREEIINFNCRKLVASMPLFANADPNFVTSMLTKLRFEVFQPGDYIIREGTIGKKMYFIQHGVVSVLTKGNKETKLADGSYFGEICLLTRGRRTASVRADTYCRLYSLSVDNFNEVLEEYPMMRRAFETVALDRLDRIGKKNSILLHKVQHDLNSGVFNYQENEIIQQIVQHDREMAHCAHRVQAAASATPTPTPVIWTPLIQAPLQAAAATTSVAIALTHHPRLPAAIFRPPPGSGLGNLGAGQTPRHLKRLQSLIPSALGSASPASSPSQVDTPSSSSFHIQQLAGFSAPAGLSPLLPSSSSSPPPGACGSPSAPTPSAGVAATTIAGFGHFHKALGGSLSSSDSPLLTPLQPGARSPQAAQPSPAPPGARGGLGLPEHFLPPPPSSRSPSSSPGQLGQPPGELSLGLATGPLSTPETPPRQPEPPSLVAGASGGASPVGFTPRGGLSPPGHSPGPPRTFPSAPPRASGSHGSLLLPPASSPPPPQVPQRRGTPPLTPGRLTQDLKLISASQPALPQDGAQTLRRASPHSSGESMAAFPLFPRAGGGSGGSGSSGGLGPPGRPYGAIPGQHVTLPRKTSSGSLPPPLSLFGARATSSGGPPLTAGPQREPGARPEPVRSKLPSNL
The experiment is described as follows: HCN4 assay using PatchXpress 7000A (Example 50A). The settings on record: PatchXpress protocol (PX). It counts as cell-based. The procedure: as §1
For HCN4, the pulse protocol involved stepping from a holding potential of −30 mV to −130 mV (see FIG. 1B) for 4 seconds to evoke the current.
as §2, §3, §4

As for `N[C@@H](Cc1ccccn1)c1ccccc1-n1ncc2cc(Br)ccc21` [Example 1, (S)-1-[2-(5-Bromo-1H-indazol-1-yl)phenyl]-2-(pyridine-2-yl)ethane-1-amine hydrochloride], the IC50 at HCN2 came to 0.9 µM; against HCN4, 3.4 µM.
The corresponding values for `N#Cc1ccc2c(cnn2-c2ccccc2[C@@H](N)Cc2ccccn2)c1` [Example 3, (S)-1-{2-[1-Amino-2-(pyridine-2-yl)ethyl]-phenyl}-1H-indazole-5-carbonitrile hydro-chloride] are 3.5 µM and above 30 µM.
As to `Cc1cccc(C[C@H](N)c2ncccc2-n2ncc3ccccc32)n1` [Example 5, (S)-1-[3-(1H-indazole-1-yl)pyridine-2-yl]-2-(6-methylpyridine-2-yl)ethan-1-amine hydrochloride], the values for the IC50 against HCN2 and on HCN4 were 1.9 µM and above 30 µM, respectively.
The corresponding values for `N#Cc1cccc(C[C@H](N)c2ncccc2-n2ncc3ccccc32)n1` [Example 6, (S)-6-{2-[3-(1H-ind-azol-1-yl)pyridine-2-yl]-2-aminoethyl}pyridine-2-carbonitrile hydro-chloride] are 1.1 µM and 22.2 µM.
As to `N[C@@H](Cc1ccccn1)c1ccccc1-n1ncc2cnccc21` [Example 7, (S)-1-[2-(1H-pyrazolo-[4,3-c]pyridine-1-yl)-phenyl]-2-(pyridine-2-yl)ethan-1-amine hydrochloride], the IC50 is 7 µM against HCN2 and above 30 µM against HCN4.
The corresponding values for `CN(C)C(=O)c1cccc(C[C@H](N)c2ncccc2-n2ncc3ccccc32)n1` [Example 8, (S)-6-{2-[3-(1H-ind-azol-1-yl)pyridine-2-yl]-2-aminoethyl}-N,N-dimethylpyridine-2-carboxamide hydro-chloride] are 28.1 µM and above 30 µM.
The corresponding values for `NC(=O)c1cccc(C[C@H](N)c2ncccc2-n2ncc3ccccc32)n1` [Example 9, (S)-6-{2-[3-(1H-ind-azol-1-yl)pyridine-2-yl]-2-aminoethyl}pyridine-2-carboxamide hydro-chloride] are 17.3 µM and above 30 µM.
The corresponding values for `N[C@@H](Cc1ncccc1F)c1ncccc1-n1ncc2ccccc21` [Example 10, (S)-1-[3-(1H-indazole-1-yl)pyridine-2-yl]-2-(3-fluoropyridine-2-yl)ethan-1-amine hydrochloride] are 0.08 µM and 4.2 µM.
On HCN2, `Cc1ccc(F)c(C[C@H](N)c2ncccc2-n2ncc3ccccc32)n1` [Example 11, (S)-1-[3-(1H-indazole-1-yl)pyridine-2-yl]-2-(3-fluoro-6-methyl-pyridine-2-yl)ethan-1-amine hydrochloride] came in with an IC50 of 0.16 µM.
On the same count and under the same terms, the result for `N[C@@H](Cc1cccc(-c2cn[nH]c2)n1)c1ncccc1-n1ncc2ccccc21` [Example 12, (S)-1-[3-(1H-indazole-1-yl)pyridine-2-yl]-2-[6-(1H-pyrazol-4-yl)-pyridine-2-yl)ethan-1-amine hydrochloride] reads above 10 µM.
`N[C@@H](Cc1cccc(OCCO)n1)c1ncccc1-n1ncc2ccccc21` [Example 13, (S)-2-[(6-{2-[3-(1H-Indazol-1-yl)pyridine-2-yl]-2-aminoethyl}-pyridine-2-yl)oxy]-ethan-1-ol hydro-chloride]: the IC50 at HCN2 was above 10 µM.
Molecule `N[C@@H](Cc1cccc(CCO)n1)c1ncccc1-n1ncc2ccccc21` [Example 14, (S)-2-(6-{2-[3-(1H-Indazol-1-yl)pyridine-2-yl]-2-aminoethyl}-pyridine-2-yl)ethan-1-ol hydrochloride] returned an IC50 on HCN2 of 3.7 µM.
Regarding `CCc1cccc(C[C@H](N)c2ncccc2-n2ncc3ccccc32)n1` [Example 15, (S)-1-[3-(1H-indazole-1-yl)pyridine-2-yl]-2-(6-ethylpyridine-2-yl)-ethan-1-amine hydro-chloride], the IC50 stood at 2.1 µM against HCN2 and 14.8 µM against HCN4.
The corresponding values for `Cc1cccnc1C[C@H](N)c1ncccc1-n1ncc2ccccc21` [Example 16, (S)-1-[3-(1H-indazole-1-yl)pyridine-2-yl]-2-(3-methylpyridine-2-yl)ethan-1-amine hydrochloride] are 0.13 µM and 2.1 µM.
The corresponding values for `N[C@@H](Cc1cccc(F)n1)c1ncccc1-n1ncc2ccccc21` [Example 17, (S)-1-[3-(1H-indazole-1-yl)pyridine-2-yl]-2-(6-fluoropyridine-2-yl)ethan-1-amine hydrochloride] are 3.3 µM and 14.7 µM.
In the case of `NC(=O)c1ccc(F)c(C[C@H](N)c2ncccc2-n2ncc3ccccc32)n1` [Example 19, (S)-6-{2-[3-(1H-ind-azol-1-yl)pyridine-2-yl]-2-aminoethyl}-5-fluoropyridine-2-carboxamide hydro-chloride], the midpoint of inhibition against HCN2, the IC50, lay at 6.9 µM.
Molecule `N[C@@H](Cc1nc(CCO)ccc1F)c1ncccc1-n1ncc2ccccc21` [Example 24, (S)-2-(6-{2-[3-(1H-Indazol-1-yl)pyridine-2-yl]-2-aminoethyl}-5-fluoropyridine-2-yl)-ethan-1-ol hydrochloride] had an IC50 against HCN4 of 19.2 µM.
Consider `NC(=O)c1nc(C[C@H](N)c2ncccc2-n2ncc3ccccc32)ccc1F` [Example 27, (S)-6-{2-[3-(1H-ind-azol-1-yl)pyridine-2-yl]-2-aminoethyl}-3-fluoropyridine-2-carboxamide hydro-chloride], for which the IC50 against HCN2 was above 10 µM.
The same measure, in the same setting: the result for `CN(C)C(=O)c1ccc(F)c(C[C@H](N)c2ncccc2-n2ncc3ccccc32)n1` [Example 29, (S)-6-{2-[3-(1H-ind-azol-1-yl)pyridine-2-yl]-2-aminoethyl}-5-fluoro-N,N-dimethylpyridine-2-carboxamide hydro-chloride] reads 2.6 µM; that for `CS(=O)(=O)c1cccc(C[C@H](N)c2ncccc2-n2ncc3ccccc32)n1` [Example 49, (S)-1-[3-(1H-indazole-1-yl)pyridine-2-yl]-2-(6-methylsulfonyl-pyridine-2-yl)ethan-1-amine hydrochloride], around 10 µM.
